Measurements: patent US11465984B2, “Compound having ERK kinase inhibitory activity and use thereof” (SHANGHAI HAIHE PHARMACEUTICAL CO., LTD., priority 2017, dated 2022)

Test: Permeability study, Caco-2 cell in vitro drug absorption model
Format: in vitro ADME
Conditions: human
Experimental: The permeability of Compound P9 of the invention and Compound A107 of WO2017/114510A1 was determined using Caco-2 cell in vitro drug absorption model in this Example
• Cell: human intestinal cancer Caco2 (HTB-37, ATCC) • Petri dish: 10 cm petri dish (430167, Corning) • Millicell-24 microplage (PSHT010R5, Millipore) • Buffer: PBS (14190, Invitrogen) • HEPES (H0887, Sigma) • HBSS (H8264, Sigma) • Substances related to cell culture: • high glucose DMEM medium (L0103-500, Biowest) • fetal bovine serum (S1810-500, Biowest) • trypsin (255200-056, Invitrogen) • nonessential amino acid (M7145, Sigma) • penicillin and streptomycin (B-13234, GIBCO) • sodium pyruvate (11360-070, Invitrogen) • L-glutamine (25030-081, Invitrogen) • Relevant reagents: fluorescein (L0144, Sigma) • propranolol (P831800, Sigma) • colchicine (C9754, Sigma) • atenolol (A7655, Sigma) • Instruments: liquid chromatography (Waters Acquity UPLC I-class, Waters) • mass spectrometry (Waters xevo TQ-S MS/MS, Waters) • ohmmeter (Millicell-ERS, Thermo) • microplate reader (Infinite Pro, Tecan) (2). Assay Protocol:
• 1) The Caco-2 cells were revived, and incubated in a 10 cm petri dish in a 5-6% CO2 and 95% RH incubator at 37° C. […] The cells were re-suspended in 6 ml complete medium, and counted three times. • 3) The cells were harvested by centrifugation at 1000 rpm for 5 min, and diluted in suspension. […]

## Cn1nccc1Nc1cc(-c2cc(F)c3c(c2)CCN3C(=O)Cc2cccnc2Cl)ccn1 [Example P9, 2-(2-chloropyridin-3-yl)-1-(7-fluoro-5-(2-((1-methyl-1H-pyrazol-5-yl)amino)pyridin-4-yl)indolin-1-yl)ethan-1-one]
  efflux ratio at 1.5 h, 20 μm: 1.3
Papp, Apical to Basal, 20 μm, 1.5 h, read-out: apparent permeability coefficient (Caco-2) From A to B
  Papp A→B at 1.5 h, 20 μm: 23.7 ×10⁻⁶ cm/s
